Experimental findings from patent US10336701B2, “Pyridin-2-one derivatives of formula (II) useful as EP3 receptor antagonists” (Janssen Pharmaceutica NV, priority 2017, dated 2019) are described below.

In assay [1] the target is T1, EP3 receptor (Homo sapiens, UniProt P43115).
T1 construct: purchased Millipore HTS092M
T1 sequence (P43115 1-390): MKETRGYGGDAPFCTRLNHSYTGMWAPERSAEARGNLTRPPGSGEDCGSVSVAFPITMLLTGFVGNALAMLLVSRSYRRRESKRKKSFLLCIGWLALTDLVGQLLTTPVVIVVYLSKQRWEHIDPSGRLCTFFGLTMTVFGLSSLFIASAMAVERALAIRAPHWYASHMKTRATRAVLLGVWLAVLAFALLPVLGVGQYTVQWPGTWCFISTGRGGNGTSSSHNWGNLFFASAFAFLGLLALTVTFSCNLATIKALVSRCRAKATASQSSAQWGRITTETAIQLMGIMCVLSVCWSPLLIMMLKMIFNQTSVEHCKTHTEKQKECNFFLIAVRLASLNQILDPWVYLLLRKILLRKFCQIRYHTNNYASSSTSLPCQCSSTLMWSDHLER
The assay can be described thus: CHO cell cAMP assay (forskolin and sulprostone stimulated, HTRF). Format: cell-based. The note with it: CHO cells; sulprostone 700 nM (EC80) and FSK 2 μM (EC70), 37° C. for 30 minutes; read-out: CHO_cAMP IC50. Here is the method:
For detection, a homogeneous competitive immunoassay (Time Resolved Fluorescence Energy Transfer (hTR-FRET)) was used.
Cells (6K cells per well) were plated in Poly-D-Lysine coated plates the day before the assay was to be run and were incubated at 37° C. […] At the start of the assay the buffer was removed from the cells and replaced with buffer containing test compound(s). Sulprostone at an EC80 dose (700 nM) and FSK at an EC70 dose (2 μM) were added to initiate the reaction (37° C. for 30 minutes).
FSK increases cAMP production and sulprostone decreases cAMP production produced by FSK. In this assay, EP3 antagonists will increase the cAMP to the level of cAMP generated by FSK alone.
Approximately one hour later the plates were read on an Envision (Perkin Elmer) in HTRF mode.
NSP, NSN, NSsample were converted to nM cAMP using the following equation: […]
IC50 values were determined from a […] (Hill equation) of a single 11-point compound dosing.
In general terms: Cyclic AMP is a second messenger, typically raised through Gs and lowered through Gi signalling.

Assay [2] has as its target T1, EP3 receptor. The assay can be described thus: [3H]-PGE2 binding assay (EP3 competition binding). To be noted: read-out: [3H]-PGE2 Binding Ki. Here is the method:
EP3 competition binding was determined using the following materials and experimental conditions:
Beads=Perkin Elmer RPNQ0001
EP3 membrane=Millipore HTS092M
Membrane concentration=2 μg/well
Beads concentration=0.25 mg/well
[3H]-PGE2=2 nM; DMSO—0.1%
Binding buffer=50 mM Tris, 10 mM MgCl2, 1 mM • EDTA, PH 7.4.
The binding buffer was removed from refrigeration (@ 4° C.) and allowed to warm to room temperature. Test compound (@ stock concentration of […] in DMSO) was serial dilutes (1:3) with 100% DMSO using Echo plate. Diluted test compound (30 nL) was dispensed to the 384-well assay plate (using Echo 550 Labcyte System). To each well was then added assay buffer (5 μl) and each well was spun. Beads were weighed out, dissolved in assay buffer to a concentration of 0.25 mg/15 μl. Original membrane was diluted with assay buffer to a concentration of 2 μg/5 μl. […] To each test well were then added diluted [3H]-PGE2 (5 μl), diluted membrane (5 μl), and dissolved beads (15 μl). The plate was equilibrated at room temperature on a plate shaker for 2 hours and then read with a TOPCOUNT scintillation plate reader. Results were analyzed using a Prism program with non-linear regression, one-site fit for Ki.

Structures are written as SMILES.

As to `CC(C)C(Cc1ccc(-c2ccc3cccc(F)c3c2)[nH]c1=O)C(N)=O` (stereo not shown) [compound 253, 2-((6-(8-fluoronaphthalen-2-yl)-2-oxo-1,2-dihydropyridin-3-yl)methyl)-3-methylbutanamide], the IC50 (as a rule, the concentration that inhibits the measured activity by half) on EP3 receptor [1] is 59 nM. Moreover, at EP3 receptor [2], the Ki (as a rule, a measure of affinity in units of concentration, obtained from inhibition or displacement) is 12 nM.

Take `CCC(CC)(CC1OC(=O)NC1=O)c1ccc(-c2ccc3cccc(F)c3c2)[nH]c1=O` (stereo not shown) [compound 9, 5-(2-ethyl-2-(6-(8-fluoronaphthalen-2-yl)-2-oxo-1,2-dihydropyridin-3-yl)butyl)oxazolidine-2,4-dione]: the IC50 at EP3 receptor [1] worked out at 108 nM. Moreover, the Ki on EP3 receptor [2] stood at 23 nM.

For `CC(C)/C(=C1\OC(=O)NC1=O)c1ccc(-c2ccc3cccc(F)c3c2)[nH]c1=O` [compound 304, (E)-5-(1-(6-(8-fluoronaphthalen-2-yl)-2-oxo-1,2-dihydropyridin-3-yl)-2-methylpropylidene)oxazolidine-2,4-dione], the IC50 on EP3 receptor [1] turned out to be 680 nM. For the same molecule, at EP3 receptor [2], the Ki is 270 nM.

For `CC(C)C(/C=C1/C(=O)NC(=O)N1C)c1ccc(-c2ccc3cccc(F)c3c2)[nH]c1=O` (stereo not shown) [Compound #80, 5-(2-(6-(8-fluoronaphthalen-2-yl)-2-oxo-1,2-dihydropyridin-3-yl)-3-methylbutylidene)-1-methylimidazolidine-2,4-dione], the IC50 on EP3 receptor [1] is 11 nM. For the same molecule, on EP3 receptor [2], the Ki was found to be 6 nM.

For the molecule `CC(C)S(=O)(=O)N1CCC(c2ccc(-c3ccc4cc(F)ccc4c3)[nH]c2=O)CC1` [compound 199, 6-(6-fluoronaphthalen-2-yl)-3-(1-(isopropylsulfonyl)piperidin-4-yl)pyridin-2(1H)-one], the IC50 at EP3 receptor [1] is more than 20000 nM. On EP3 receptor [2], the Ki was more than 10000 nM.

In the case of `CCn1ncc2c(F)c(-c3ccc(C(/C=C4/OC(=O)NC4=O)(CC)CC)c(=O)[nH]3)ccc21` [compound 12, (E)-5-(2-ethyl-2-(6-(1-ethyl-4-fluoro-1H-indazol-5-yl)-2-oxo-1,2-dihydropyridin-3-yl)butylidene)oxazolidine-2,4-dione], at EP3 receptor [1], the IC50 is more than 20000 nM. The Ki on EP3 receptor [2] was found to be 1350 nM.

`CC(C)C(CC1OC(=O)NC1=O)c1ccc(-c2cc(Cl)c3c(c2)ncn3C)[nH]c1=O` (stereo not shown) [compound 107, 5-(2-(6-(7-chloro-1-methyl-1H-benzo[d]imidazol-5-yl)-2-oxo-1,2-dihydropyridin-3-yl)-3-methylbutyl)oxazolidine-2,4-dione]: at EP3 receptor [1], the IC50 is more than 20000 nM. The Ki on EP3 receptor [2] was more than 10000 nM.

For the molecule `CO/N=C1\NC(=O)C(c2ccc(-c3ccc4cccc(F)c4c3)[nH]c2=O)(C(C)C)N1` (stereo not shown) [compound 237, (Z)-6-(8-fluoronaphthalen-2-yl)-3-(4-isopropyl-2-(methoxyimino)-5-oxoimidazolidin-4-yl)pyridin-2(1H)-one], on EP3 receptor [1], the IC50 turned out to be 12 nM. The Ki on EP3 receptor [2] stood at 4 nM.

For the molecule `CCn1ncc2c(F)cc(-c3ccc(C(Cc4noc(=O)[nH]4)C(C)C)c(=O)[nH]3)cc21` (stereo not shown) [Compound #99, 3-(2-(6-(1-ethyl-4-fluoro-1H-indazol-6-yl)-2-oxo-1,2-dihydropyridin-3-yl)-3-methylbutyl)-1,2,4-oxadiazol-5(4H)-one], the IC50 on EP3 receptor [1] amounted to 4880 nM. Also, the Ki on EP3 receptor [2] worked out at 921 nM.

As to `CCn1ncc2c(Cl)cc(-c3ccc(C(/C=C4\OC(=O)NC4=O)C(C)C)c(=O)[nH]3)cc21` (stereo not shown) [compound 116, (Z)-5-(2-(6-(4-chloro-1-ethyl-1H-indazol-6-yl)-2-oxo-1,2-dihydropyridin-3-yl)-3-methylbutylidene)oxazolidine-2,4-dione], on EP3 receptor [1], the IC50 was 76 nM. Further, at EP3 receptor [2], the Ki was 8 nM.

For `CC(C)C(CC(=O)NCCN(C)C)c1ccc(-c2ccc3cccc(F)c3c2)[nH]c1=O` (stereo not shown) [compound 259, N-(2-(dimethylamino)ethyl)-3-(6-(8-fluoronaphthalen-2-yl)-2-oxo-1,2-dihydropyridin-3-yl)-4-methylpentanamide], on EP3 receptor [1], the IC50 came out at 242 nM. The Ki on EP3 receptor [2] is 28 nM.
